“And” between values parts separate entries of the source, which are not always exact repeats. Equal entries are not always repeated. Where two headings read alike, the source gives them in different places.
Assays:
[1] = Pharmacokinetic studies in rat (i.v.); type: in vivo; settings: rat plasma; for Apparent t1/2 / half-life: estimated from 2 points only; for concentration at 0.25 h / concentration at 1 h / concentration at 4 h / AUC(0-t) / half-life: male, Sprague-Dawley, rat, plasma, iv; for concentration at 0.25 h / concentration at 1 h / concentration at 4 h: read-out: Plasma concentration; for AUC(0-t): read-out: AUC0-tlast; for half-life: read-out: Apparent t1/2 (converted)
Outline: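 Male Sprague-Dawley rats (~225-350 g) received compounds intravenously via tail vein in 5% Tween-80 in saline. Saphenous blood was sampled at 0.25, 1 and 4 h and analysed by LC-MS/MS. t1/2 and AUC0-tlast came from non-compartmental analysis using the linear up/log down trapezoidal rule.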

[2] = Mouse liver microsomes stability; type: in vitro ADME; settings: Mouse liver microsomes; for microsomal CLint at 2 μM / half-life at 2 μM / CLint scaled at 2 μM: male; for microsomal CLint at 2 μM: mouse, liver microsomes, read-out: CLint (μL/min/mg protein); for microsomal CLint at 2 μM / half-life at 2 μM: 2 μM compound, 0.5 mg/mL microsomes, 1 mM NADPH; for half-life at 2 μM: 37° C; for CLint scaled at 2 μM: read-out: Scaled-up CLint
[3] = Human liver microsomes stability; type: in vitro ADME; settings: Human liver microsomes; for half-life at 2 μM / microsomal CLint at 2 μM: 2 μM compound, 0.5 mg/mL microsomes, 1 mM NADPH; for half-life at 2 μM: 37° C; for microsomal CLint at 2 μM: read-out: CLint (μL/min/mg protein); for CLint scaled at 2 μM: read-out: Scaled-up CLint
Outline: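 In this assay, 2 μM compound is incubated with NADPH-supplemented liver microsomes (human pooled; male rat; male mouse) at 37° C for up to 60 min. Depletion is followed by LC-MS/MS, and CLint is expressed per mg microsomal protein.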

[4] = I-12 1.2 mg/kg i.v., individual rats R01-R03, 1.2 mg/kg
[5] = 1.2 mg/kg, I-12 1.2 mg/kg i.v., individual rats R01-R03
[6] = I-17 1.33 mg/kg i.v., individual rats R07-R09, 1.33 mg/kg
[7] = 1.33 mg/kg, I-17 1.33 mg/kg i.v., Mean ± SD
[8] = 1.33 mg/kg, I-17 1.33 mg/kg i.v., individual rats R07-R09

SMILES: CCN(CC)CCc1c[nH]c2ccc(SC)cc12 [Compound I-12, N,N-Diethyl-2-(5-(methylthio)-1H-indol-3-yl)ethan-1-amine]
- Plasma concentration ([1]; I-12 1.2 mg/kg i.v., 0.25 h, individual rats R01-R03, 1.2 mg/kg): 53.6 ng/mL and 72.4 ng/mL and 30.1 ng/mL
- Plasma concentration ([1]; I-12 1.2 mg/kg i.v., 1 h, individual rats R01-R03, 1.2 mg/kg): 36.4 ng/mL and 29.7 ng/mL
- Plasma concentration ([1]; I-12 1.2 mg/kg i.v., 4 h, individual rats R01-R03, 1.2 mg/kg): 3.88 ng/mL and 2.55 ng/mL and 6.48 ng/mL
- AUC0-tlast [1, 4]: 97.8 ng·h/mL and 75.7 ng·h/mL
- Apparent t1/2 [1, 4]: 46.7 min
- concentration at 0.25 h ([1]; 1.2 mg/kg, I-12 1.2 mg/kg i.v., 0.25 h, Mean ± SD): 52 ± 21.2 ng/mL
- concentration at 1 h ([1]; 1.2 mg/kg, I-12 1.2 mg/kg i.v., 1 h, Mean ± SD): 31.2 ± 4.6 ng/mL
- concentration at 1 h ([1]; 1.2 mg/kg, I-12 1.2 mg/kg i.v., 1 h, individual rats R01-R03): 27.6 ng/mL
- concentration at 4 h ([1]; 1.2 mg/kg, I-12 1.2 mg/kg i.v., 4 h, Mean ± SD): 4.3 ± 2 ng/mL
- AUC(0-t) ([1]; 1.2 mg/kg, I-12 1.2 mg/kg i.v., Mean ± SD): 84.7 ± 11.6 ng·h/mL
- half-life [1, 5]: 60.6 min
- AUC(0-t) [1, 5]: 80.6 ng·h/mL
- half-life ([1]; 1.2 mg/kg, I-12 1.2 mg/kg i.v., mean (n = 2)): 53.6 min
- Predicted hepatic CL [2]: 82.50 mL/min/kg
- microsomal CLint at 2 μM [2]: 226 µL/min/mg
- half-life at 2 μM [2]: 6.13 min
- CLint scaled at 2 μM [2]: 990 mL/min/kg
- Predicted hepatic CL [3]: 15.84 mL/min/kg
- half-life at 2 μM [3]: 25.8 min
- microsomal CLint at 2 μM [3]: 53.8 µL/min/mg
- CLint scaled at 2 μM [3]: 67.5 mL/min/kg

SMILES: CSc1ccc2[nH]cc(CCN(C(C)C)C(C)C)c2c1 [Compound I-17, N-Isopropyl-N-(2-(5-(methylthio)-1H-indol-3-yl)ethyl)propan-2-amine]
- Plasma concentration ([1]; I-17 1.33 mg/kg i.v., 0.25 h, individual rats R07-R09, 1.33 mg/kg): 197 ng/mL and 259 ng/mL
- Plasma concentration ([1]; I-17 1.33 mg/kg i.v., 1 h, individual rats R07-R09, 1.33 mg/kg): 89.3 ng/mL and 120 ng/mL
- Plasma concentration ([1]; I-17 1.33 mg/kg i.v., 4 h, individual rats R07-R09, 1.33 mg/kg): 17.7 ng/mL and 15.6 ng/mL
- AUC0-tlast [1, 6]: 363 ng·h/mL
- Apparent t1/2 [1, 6]: 67.8 min and 57 min
- concentration at 0.25 h ([1]; 1.33 mg/kg, I-17 1.33 mg/kg i.v., 0.25 h, Mean ± SD): 198 ± 60 ng/mL
- concentration at 0.25 h ([1]; 1.33 mg/kg, I-17 1.33 mg/kg i.v., 0.25 h, individual rats R07-R09): 139 ng/mL
- concentration at 1 h ([1]; 1.33 mg/kg, I-17 1.33 mg/kg i.v., 1 h, Mean ± SD): 103 ± 15.5 ng/mL
- concentration at 1 h ([1]; 1.33 mg/kg, I-17 1.33 mg/kg i.v., 1 h, individual rats R07-R09): 101 ng/mL
- concentration at 4 h ([1]; 1.33 mg/kg, I-17 1.33 mg/kg i.v., 4 h, Mean ± SD): 19.7 ± 5.39 ng/mL
- concentration at 4 h ([1]; 1.33 mg/kg, I-17 1.33 mg/kg i.v., 4 h, individual rats R07-R09): 25.8 ng/mL
- half-life [1, 7]: 72.6 ± 18.1 min
- AUC(0-t) [1, 7]: 315 ± 41.4 ng·h/mL
- half-life [1, 8]: 92.4 min
- AUC(0-t) [1, 8]: 291 ng·h/mL
- Predicted hepatic CL [2]: >84.35 mL/min/kg
- microsomal CLint at 2 μM [2]: > 307 µL/min/mg
- half-life at 2 μM [2]: < 4.51 min
- CLint scaled at 2 μM [2]: > 1340 mL/min/kg
- Predicted hepatic CL [3]: 19.11 mL/min/kg
- half-life at 2 μM [3]: 6.99 min
- microsomal CLint at 2 μM [3]: 198 µL/min/mg
- CLint scaled at 2 μM [3]: 249 mL/min/kg
